Experimental data as given in patent US12065436B2, “Cardiac sarcomere inhibitors” (Cytokinetics, Inc., priority 2018, dated 2024).

Legend:
[1] = target: bovine cardiac myofibrils (full-length cardiac myosin ATPase in the native sarcomere) (Bos taurus (Bovine), UniProt Q9BE39); assay: Skinned bovine cardiac myofibril ATPase assay (PK/LDH-coupled); assay type: biochemical; conditions: Ca2+ activating to 75% of maximal rate
Outline: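 Inhibition of steady-state ATPase read at 340 nm through a PK/LDH-coupled NADH system (0.5 mM NADH, 1.5 mM PEP). Detergent-skinned bovine cardiac myofibrils, 1 mg/mL, were tested at pH 6.8 in PIPES/MgCl2 with 50 μM ATP and calcium adjusted to give pCa50 or pCa75 activation.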

[2] = system: rat cardiac contractility (left ventricle fractional shortening); assay: Echocardiography of acute effect on rat cardiac contractility, continuous IV infusion; assay type: in vivo, Sprague Dawley rats; conditions: Rattus norvegicus, plasma concentration at which fractional shortening is 50% of pre-dose baseline, estimated, read-out: IC50 (Mean ± S.D.)
Outline: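 Male Sprague Dawley rats under 1–3% isoflurane received compound in 50% PG/16% Captisol/10% DMA by jugular infusion at 1 mL/kg/h. Left-ventricle M-mode images were taken at baseline and every 5 min, with infusion stopped at up to 60% fall in fractional shortening. Plasma levels gave the estimated IC50, the concentration at which fractional shortening is 50% of baseline.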

[3] = system: Dahl Salt Sensitive (DSS) rats, hypertension-induced model of heart failure with preserved ejection fraction; assay: Fibrosis reduction in Dahl Salt Sensitive rat model of cardiac hypertrophy; assay type: in vivo; conditions: high-salt diet fed DSS rats, compound formulated in chow for 6 weeks, perivascular and interstitial cardiac tissue
Experimental: Assessment of fibrosis reduction was performed using Dahl Salt Sensitive (DSS) rats, a previously reported hypertension-induced rat model of heart failure with preserved ejection fraction (Fillmore et al., Mol Med. 2018, 24(1):3; Dahl et al., J Exp Med. 1962, 115:1173-90).
DSS rats received vehicle or Compound 142 formulated in low or high salt chow for 6 weeks. Perivascular and interstitial cardiac tissue samples were imaged and assayed for % cardiac fibrosis.

[4] = system: adult cardiac ventricular rat myocytes; assay: Adult ventricular myocyte contractility (fractional shortening); assay type: cell-based; conditions: 5 min, 5 μM compound, 5 min perfusion, read-out: % FS (% reduction from baseline) ± SEM
Experimental: Adult male Sprague-Dawley rats were anesthetized and the hearts were quickly excised, rinsed and the ascending aorta was cannulated. Continuous retrograde perfusion was initiated on the hearts at a perfusion pressure of 60 cm H2O. Hearts were first perfused with a nominally Ca^2+-free modified Krebs solution of the following composition: 113 mM NaCl, 4.7 mM KCl, 0.6 mM KH2PO4, 0.6 mM Na2HPO4, 1.2 mM MgSO4, 12 mM NaHCO3, 10 mM KHCO3, 30 mM taurine, 5.5 mM glucose and 10 mM Hepes (all Sigma). This medium is not recirculated and is continually aerated with a 95% O2/5% CO2 mixture. After approximately 3 minutes the heart was perfused with a modified Krebs buffer supplemented with collagenase (Worthington) and 12.5 μM final calcium concentration. The heart was removed from the cannulae after the heart appeared blanched and soft in appearance. The atria and vessels were removed and the ventricles were gently dissected into smaller pieces with forceps. The tissue was homogenized by repeated pipette trituration and the collagenase reaction was stopped by 10% bovine calf serum (BCS), sedimentation and resuspension in perfusion buffer containing 5% BCS and 12.5 uM CaCl2). Myocytes were made calcium tolerant by stepwise addition of a CaCl2) solution to a final concentration of 1.2 mM. Cells were then washed and resuspended in Tyrode's buffer (137 mM NaCl, 3.7 mM KCl, 0.5 mM MgCl, 11 mM glucose, 4 mM Hepes, and 1.2 mM CaCl2), pH 7.4). Cells were kept for 60 min at 37° C. prior to initiating experiments and used within 5 hrs of isolation. […] Additionally, only cells whose basal contractility was between 3 and 8% were used in subsequent experiments with compounds.
Aliquots of myocytes in Tyrode's buffer were placed in perfusion chambers (series 20 RC-27NE; Warner Instruments) complete with heating platforms. Myocytes were allowed to attach, the chambers were heated to 37° C., and the cells were perfused with 37° C. Tyrode's buffer. Myocytes were field stimulated at 1 Hz in with platinum electrodes (20% above threshold). Only cells that had clear striations and were quiescent prior to pacing were used for contractility experiments. To determine basal contractility, myocytes were imaged through a 40× objective. […] Once cell contraction was stable over time, test compounds (0.01-15 μM) were perfused into the chambers on the myocytes for 5 minutes. Contractility of the myocytes and contraction and relaxation velocities were then recorded using edge detection.
Five or more individual myocytes were tested per compound from two or more different myocyte preparations. For each cell, twenty or more contractility transients at basal (defined as 1 min prior to compound infusion) and after compound addition (defined as 5 min after starting compound perfusion), were averaged and compared. These average transients were analyzed using the IonWizard software (IonOptix) to determine changes in diastolic length and fractional shortening. Fractional shortening was calculated as: ((resting length−length at peak contraction) divided by the resting length). The percent change in fractional shortening from baseline was calculated as: ((post-dose fractional shortening/basal fractional shortening)*100). The percent reduction in fractional shortening from baseline was calculated as: (100−percent change in fractional shortening from baseline). Maximum contraction and relaxation velocities (um/sec) was also determined. Results from individual cells are averaged and the SEM calculated.

Chain of bovine cardiac myofibrils (full-length cardiac myosin ATPase in the native sarcomere) (Q9BE39 whole entry): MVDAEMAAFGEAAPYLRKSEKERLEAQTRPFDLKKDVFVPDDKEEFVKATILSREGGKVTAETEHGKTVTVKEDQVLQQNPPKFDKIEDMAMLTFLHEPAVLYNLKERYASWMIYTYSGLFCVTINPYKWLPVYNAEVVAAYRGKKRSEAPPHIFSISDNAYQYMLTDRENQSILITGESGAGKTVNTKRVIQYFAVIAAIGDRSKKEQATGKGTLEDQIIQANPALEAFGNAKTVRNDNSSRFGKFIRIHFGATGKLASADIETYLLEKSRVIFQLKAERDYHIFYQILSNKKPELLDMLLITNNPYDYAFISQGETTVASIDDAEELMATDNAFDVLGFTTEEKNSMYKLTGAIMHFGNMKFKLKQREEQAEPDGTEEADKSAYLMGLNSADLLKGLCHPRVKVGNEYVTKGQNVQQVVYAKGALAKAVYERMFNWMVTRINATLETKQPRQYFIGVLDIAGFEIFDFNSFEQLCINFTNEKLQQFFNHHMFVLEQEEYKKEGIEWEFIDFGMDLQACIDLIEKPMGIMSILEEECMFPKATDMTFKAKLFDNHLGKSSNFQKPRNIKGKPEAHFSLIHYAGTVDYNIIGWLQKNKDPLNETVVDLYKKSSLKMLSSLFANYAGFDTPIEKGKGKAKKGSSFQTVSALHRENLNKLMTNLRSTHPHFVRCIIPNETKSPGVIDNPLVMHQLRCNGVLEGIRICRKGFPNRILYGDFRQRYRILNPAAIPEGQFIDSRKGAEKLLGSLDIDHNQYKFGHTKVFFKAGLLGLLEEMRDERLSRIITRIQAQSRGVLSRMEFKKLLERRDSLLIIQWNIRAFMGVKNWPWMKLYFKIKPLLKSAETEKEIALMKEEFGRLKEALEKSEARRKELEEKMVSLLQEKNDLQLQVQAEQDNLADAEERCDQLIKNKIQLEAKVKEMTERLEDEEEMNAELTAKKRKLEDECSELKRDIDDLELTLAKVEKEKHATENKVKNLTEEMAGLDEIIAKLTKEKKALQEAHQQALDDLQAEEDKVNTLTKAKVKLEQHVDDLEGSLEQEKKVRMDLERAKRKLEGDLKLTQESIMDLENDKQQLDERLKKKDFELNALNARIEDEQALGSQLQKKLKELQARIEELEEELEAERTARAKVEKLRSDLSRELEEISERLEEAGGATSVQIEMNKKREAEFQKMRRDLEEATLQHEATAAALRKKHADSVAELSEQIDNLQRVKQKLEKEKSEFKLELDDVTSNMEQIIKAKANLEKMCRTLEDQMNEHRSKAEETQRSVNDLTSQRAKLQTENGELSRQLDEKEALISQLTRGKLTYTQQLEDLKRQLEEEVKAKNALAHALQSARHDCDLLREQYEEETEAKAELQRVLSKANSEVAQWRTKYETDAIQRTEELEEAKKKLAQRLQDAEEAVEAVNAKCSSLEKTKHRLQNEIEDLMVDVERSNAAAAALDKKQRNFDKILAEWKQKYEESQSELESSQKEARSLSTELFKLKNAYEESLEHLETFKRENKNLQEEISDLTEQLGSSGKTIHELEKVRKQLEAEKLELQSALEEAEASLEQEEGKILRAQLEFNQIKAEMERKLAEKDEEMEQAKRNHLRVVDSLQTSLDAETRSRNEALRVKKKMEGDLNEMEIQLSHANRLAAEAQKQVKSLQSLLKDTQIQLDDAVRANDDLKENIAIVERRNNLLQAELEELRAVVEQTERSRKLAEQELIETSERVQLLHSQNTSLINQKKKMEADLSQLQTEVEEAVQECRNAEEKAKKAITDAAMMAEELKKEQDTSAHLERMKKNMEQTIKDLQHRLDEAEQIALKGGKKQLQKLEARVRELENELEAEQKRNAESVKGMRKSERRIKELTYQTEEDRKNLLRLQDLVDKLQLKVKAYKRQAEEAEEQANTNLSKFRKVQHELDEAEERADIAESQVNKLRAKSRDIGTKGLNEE
Chain of bovine cardiac myofibrils (full-length cardiac myosin ATPase in the native sarcomere) (P85100 whole entry partner): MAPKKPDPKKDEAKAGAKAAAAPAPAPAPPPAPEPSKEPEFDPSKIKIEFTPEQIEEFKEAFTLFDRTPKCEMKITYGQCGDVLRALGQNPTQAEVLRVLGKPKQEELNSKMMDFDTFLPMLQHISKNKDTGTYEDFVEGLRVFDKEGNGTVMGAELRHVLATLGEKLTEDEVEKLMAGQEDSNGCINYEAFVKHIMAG
Chain of bovine cardiac myofibrils (full-length cardiac myosin ATPase in the native sarcomere) (Q3SZE5 whole entry partner): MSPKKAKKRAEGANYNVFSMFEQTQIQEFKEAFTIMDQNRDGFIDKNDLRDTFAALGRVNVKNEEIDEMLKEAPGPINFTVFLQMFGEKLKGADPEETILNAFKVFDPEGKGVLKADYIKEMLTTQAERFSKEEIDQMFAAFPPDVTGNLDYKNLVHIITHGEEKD

CDMF75 IC15 ([1]; concentration giving 15% inhibition): 500 nM
IC50 ([1]; read-out: CDMF75 IC50): 2400 nM
IC50 [2]: 2700 ± 120 nM
SMILES: CC(C)c1nc(-c2ccc3c(c2)CC[C@H]3NC(=O)c2nnn(C)n2)no1 [Compound 142, (R)—N-(5-(5-isopropyl-1,2,4-oxadiazol-3-yl)-2,3-dihydro-1H-inden-1-yl)-2-methyl-2H-tetrazole-5-carboxamide]
% cardiac fibrosis [3]: attenuated increases in fibrosis
inhibition at 5 µM [4]: 67.8%
